{"source": "ChEMBL document CHEMBL1158772", "about": "“Benzophenones from Hypericum carinatum” (J Nat Prod, 2005)", "assay_type_in_all_cases": "functional", "key": {"[1]": {"experiment": "Antioxidant activity assessed as ABAP free radical scavenging measured at 1.6 mM by TRAP assay"}, "[2]": {"experiment": "Antioxidant activity assessed as ABAP free radical scavenging measured at 3.2 mM by TRAP assay"}, "[3]": {"experiment": "Antioxidant activity assessed as ABAP free radical scavenging measured by TRAP assay"}}, "note": "Activity calls are given as the source filed them. The rule behind the calls is not given here.", "data": [{"smiles": "Cc1c(O)c(C(=O)c2ccccc2)c(O)c2c1OC(C)(C)C=C2", "values": [{"measurement": "Activity", "setting": "[1]", "value": "Active"}, {"measurement": "Activity", "setting": "[2]", "value": "Active"}]}, {"smiles": "Cc1c(O)c2c(c(C(=O)c3ccccc3)c1O)OC(C)(C)C=C2", "values": [{"measurement": "Activity", "setting": "[3]", "value": "inactive"}]}, {"smiles": "O=c1c(O)c(-c2ccc(O)c(O)c2)oc2cc(O)cc(O)c12", "values": [{"measurement": "Activity", "setting": "[2]", "value": "Active"}]}, {"smiles": "CC(C)C(=O)C1=C(O)C(Cc2c(O)c3c(c(C(=O)C(C)C)c2O)OC(C)(C)C=C3)=C(O)C(C)(C)C1=O", "values": [{"measurement": "Activity", "setting": "[3]", "value": "inactive"}]}]}
